Data as given in patent US8623387B2, “External preparation composition comprising fatty acid-based ionic liquid as active ingredient” (Medrx Co., Ltd., priority 2007, dated 2014).
Structures can show the parent of a compound that is named as a salt. Where two headings read alike, the source gives them in different places.

How the values were obtained:
[1] = Transdermal absorbability evaluation test using Franz-cells (rat skin permeation); settings: for Rat skin permeability after 6 hours: tramadol salt liquid preparation free from ionic liquid, percentage of amount added onto the rat skin
[2] = cited from earlier work
[3] = pKa of acidic and basic substances present in the compositions; format: physicochemical; settings: assumed to be equal to that of an analogue (footnote *1)
[4] = carboxylic acids and organic amine compounds used for the ionic liquids

| Compound | pKa [2] | further results |
| --- | --- | --- |
| Lactate | – | Rat skin permeability after 6 hours [1]: 0.2% |
| CCCCCCN [n-Hexylamine] | 10.85 | – |
| CCCCCCCCCCCCCC(=O)O [Myristic acid] | ca.4.9 | – |
| Butyrate | – | Rat skin permeability after 6 hours [1]: 23.8% |
| CC(C(=O)O)c1ccc(CC2CCCC2=O)cc1 (centres unmarked) [Loxoprofen, reference compound] | 4.20 | – |
| CCc1cccc2c3c([nH]c12)C(CC)(CC(=O)O)OCC3 (centres unmarked) [Etodolac, reference compound] | 4.5 | – |
| COc1ccc2c(c1)c(CC(=O)O)c(C)n2C(=O)c1ccc(Cl)cc1 [Indomethacin, reference compound] | – | Transdermal absorbability ([1]; indomethacin, cumulative amount permeated 6 hours after start of test, rat skin, Franz-cells): approximately 3 μg/cm^2 |
| CC(=O)CCC(=O)O [Levulinic acid] | 4.5 | – |
| NC1CCCCC1 [Cyclohexylamine] | 10.63 | – |
| CCc1ccc(C(=O)C(C)CN2CCCCC2)cc1 (centres unmarked) [Eperisone, reference compound] | 8.91 | – |
| COc1cccc(C2(O)CCCCC2CN(C)C)c1 (centres unmarked) [Hydrochloride, tramadol hydrochloride, reference compound] | – | Rat skin permeability after 6 hours [1]: 4.5% |
| CCCCCCCC/C=C\CCCCCCCC(=O)O [oleic acid] | approximately 4.9 | – |
| CC(C(=O)O)c1ccc(-c2ccccc2)c(F)c1 (centres unmarked) [Flurbiprofen, reference compound] | 3.78 | – |
| CCCCCCCCCCCC(=O)O [Lauric acid] | – | pKa [2, 4]: (pKa ≈ 4.9) |
| OCCN1CCCC1 [N-hydroxyethyl-pyrrolidine, N-hydroxyethylpyrrolidine] | 10.32 | – |
| CC(C)CCCCCCCCCCCCCCC(=O)O [Isostearic acid] | approximately 4.9 | pKa [2, 4]: (pKa ≈ 4.9) |
| CCCCC(CC)C(=O)O.COc1cccc(C2(O)CCCCC2CN(C)C)c1 (centres unmarked) [2-ethylhexanoate, 2-ethylhexanoate of Tramadol] | – | Rat skin permeability after 6 hours [1]: 12.1% |
| CCCCCCCCN [n-Octylamine] | – | pKa [3]: 10.7 |
| Cc1ccc(C(=O)C(C)CN2CCCCC2)cc1 (centres unmarked) [Tolperisone, reference compound] | – | pKa [3]: ~8.9 |
